Data from patent US9393186B2, “Synthetic peptides useful in the treatment of the skin and use thereof in cosmetic or dermopharmaceutical compositions” (Lipotec, S.A., priority 2006, dated 2016).
Square brackets hold non-standard residues; d marks the D form. Ends that are not written are not given here. Cit = NC(=O)NCCC[C@H](N)C(=O)O; Orn = NCCC[C@H](N)C(=O)O; Nva = CCC[C@H](N)C(=O)O

Experiments:
[1] = tested on: EFT-200 three-dimensional human skin model; assay: Collagen fibril diameter in EFT-200 three-dimensional human skin model (transmission electron microscopy); assay type: cell-based; settings: for average of the diameters of the collagen fibrils observed: peptide 0.1 mg/mL in culture medium, changed daily for 14 days, untreated tissue 6.825 nm; for reduction of the diameter of the collagen fibers: peptide 0.1 mg/mL, 14 days, versus untreated tissue
Procedure: Starting from an EFT-200 three-dimensional human skin model (MatTek Corporation), the tissues were treated with H-Lys-Asp-Ile-Cit-NH2 and with H-Lys-Asp-Val-Cit-NH2 at a concentration of 0.1 mg/mL in culture medium. The latter was changed daily for 14 days, adding peptide at the same concentration in each change. On day 14, the tissues were fixed with a solution of 2% paraformaldehyde and 2.5% glutaraldehyde in 0.1M phosphate buffer, pH 7.4, for at least 2 hours at 4° C. The post-fixing was then carried out with 1% osmium tetroxide containing 0.8% potassium ferricyanide for 1 hour at 4° C. The tissues were then dehydrated in alcohols and were slowly included in epoxy resin (Spurr). The samples were cut and oriented correctly in the block, allowing them to polymerize for 48 hours at 60° C.

fibrillogenesis = assay: Regulation of fibrillogenesis by synthetic peptides; settings: peptides complying with the [+,-,0,+] charge pattern; no method given

H-KDI[Cit]-NH2
average of the diameters of the collagen fibrils observed [1]: 5.791 nm
reduction of the diameter of the collagen fibers [1]: 15.1%

H-KDV[Cit]-NH2
average of the diameters of the collagen fibrils observed [1]: 5.774 nm
reduction of the diameter of the collagen fibers [1]: 15.5%

His-Asp-Ala-Arg (HDAR; printed: His-Asp-Ala-Arg) [comparison peptide complying with the [+,-,0,+] charge pattern]
effect on fibrillogenesis (fibrillogenesis): no effect on fibrillogenesis

His-Asp-Ile-His (HDIH; printed: His-Asp-Ile-His) [comparison peptide complying with the [+,-,0,+] charge pattern]
effect on fibrillogenesis (fibrillogenesis): no effect on fibrillogenesis

RELH
effect on fibrillogenesis (fibrillogenesis): capable of regulating fibrillogenesis

[Orn]D[Nva]H
effect on fibrillogenesis (fibrillogenesis): no effect on fibrillogenesis
